# Assay results: patent US5002948A, “3-[4-[4-substituted-1-piperazinyl]-1-butyl]-1H-2,3-dihydroindoles” (H. Lundbeck A/S, priority 1988, dated 1991)
# pIC50: −log10 of the molar value.
# Biological target: T1, serotonin 5-HT1A receptors (Rattus norvegicus, UniProt P19327)
# T1 construct: membranes from rat brain minus cerebellum; from tissue; host or cells: brain minus cerebellum of male Wistar (Mol:Wist) rats, membranes
# T1 sequence (P19327 1-422): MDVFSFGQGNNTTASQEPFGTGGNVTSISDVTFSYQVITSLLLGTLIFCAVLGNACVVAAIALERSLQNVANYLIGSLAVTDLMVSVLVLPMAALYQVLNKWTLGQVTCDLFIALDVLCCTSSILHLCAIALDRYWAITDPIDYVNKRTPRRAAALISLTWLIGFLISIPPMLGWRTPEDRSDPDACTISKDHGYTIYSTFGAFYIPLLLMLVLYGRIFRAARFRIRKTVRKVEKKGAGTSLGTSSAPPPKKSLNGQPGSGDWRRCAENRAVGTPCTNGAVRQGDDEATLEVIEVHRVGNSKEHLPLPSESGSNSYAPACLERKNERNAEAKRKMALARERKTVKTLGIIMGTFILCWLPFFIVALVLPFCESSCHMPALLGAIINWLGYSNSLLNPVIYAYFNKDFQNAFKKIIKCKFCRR
# Experiment: Inhibition of 3H-8-OHDPAT binding to serotonin 5-HT1A receptors in rat brain in vitro
# Settings: 3H-8-OHDPAT 1 nM, rat brain membranes minus cerebellum, 37° C., 15 min; read-out: IC50 (3H 8-OH DPAT binding)
# Experimental: INHIBITION OF ^3 H-8-OHDPAT BINDING TO SEROTONIN 5-HT1A RECEPTORS IN A RAT BRAIN IN VITRO
# By this method the inhibition by drugs of the binding of ^3 H-8-OHDPAT (1 nM) to serotonin 5-HT1A receptors in membranes from rat brain minus cerebellum is determined in vitro.
# Male Wistar (Mol:Wist) rats (125-250 g) are sacrificed and the brain is dissected and weighed. The brain tissue minus cerebellum is homogenized (Ultra Turrax, 20 sec) in 10 ml of ice cold 50 mM Tris buffer pH 8.0 (at 25° C.) containing 120 mM NaCl, 4 mM CaCl2 and 4 mM MgCl2. The homogenate is centrifuged at 20,000 g for 10 min at 4° C. The pellet is homogenized in 10 ml of buffer and incubated at 37° C. for 10 min. The homogenate is centrifuged as above and the pellet is homogenized in 100 vol (w/v) ice cold buffer containing 10 μ M of parglyine.
# Incubation tubes kept on ice in triplicate receive 100 μl of drug solution in water (or water for total binding) and 1000 μ l of tissue suspension (final tissue content corresponds to 10 mg original tissue). The binding experiment is initiated by addition of 100 μ l of ^3 H-8-OHDPAT (final concentration 1 nM) and by placing the tubes in a 37° C. water bath. After incubation for 15 min the samples are filtered under vacuum (0-50 mBar) through Whatman GF/F filters ([…]). The tubes are rinsed with 5 ml ice cold 0.9% NaCl which are then poured on the filters. Thereafter, the filters are washed with 2×5 ml 0.9% NaCl. The filters are placed in counting vials and 4 ml of appropriate scintillation fluid (e.g. Picofluor™15) are added. After shaking for 1 h and storage 2 h in the dark the content of radioactivity is determined by liquid scintillation counting. Specific binding is obtained by subtracting the nonspecific binding in the presence of 10 μ M of 5-HT.
# For determination of the inhibition of binding five concentrations of drugs covering 3 decades are used.
# The IC50 -value is determined as the concentration, at which the binding is 50% of the total binding in control samples minus the nonspecific binding in the presence of 10 μM of 5-HT.
# ^3 H-8-OHDPAT from Amersham International plc. England. Specific activity approximately 200 Ci/mmol).
row,Compound,pIC50
1,"COc1cccc(N2CCN(CCCCC3CNc4ccccc43)CC2)c1OC (centres unmarked) [Compound 3h, 3-[4-[4-(2,3-dimethoxyphenyl)-1-piperazinyl]-1-butyl]-1H-2,3-dihydroindole]",7.05
2,"COc1ccccc1N1CCN(CCCCC2CNc3ccc(Cl)cc32)CC1 (centres unmarked) [Compound 3e, 5-chloro-3-[4-[4-(2-methoxyphenyl)-1-piperazinyl]-1-butyl]-1H-2,3-dihydroindole]",8.04
3,"COc1ccccc1N1CCN(CCCCC2CN(C)c3ccccc32)CC1 (centres unmarked) [Compound 6a, 3-[4-[4-(2-methoxyphenyl)-1-piperazinyl]-1-butyl]-1-methyl-1H-2,3-dihydroindole]",7.37
4,"COc1ccccc1N1CCN(CCCCC2CNc3ccc(F)cc32)CC1 (centres unmarked) [Compound 3g, 5-fluoro-3-[4-[4-(2-methoxyphenyl)-1-piperazinyl]-1-butyl]-1H-2,3-dihydroindole]",7.77
5,"Fc1ccc2[nH]cc(CCCCN3CCN(c4cccc5c4OCCO5)CC3)c2c1 [Compound 2d, 3-[4-[4-(1,4-benzodioxan-5-yl)-1-piperazinyl]-1-butyl]-5-fluoro-1H-indole]",8.43
6,"COc1ccccc1N1CCN(CCCCc2c[nH]c3cc(Cl)ccc23)CC1 [Compound 1b, 6-Chloro-3-[4-[4-(2-methoxyphenyl)-1-piperazinyl]-1-butyl]-1H-indole]",8.00
7,"COc1ccccc1N1CCN(CCCCc2n[nH]c3ccc(C(F)(F)F)cc23)CC1 [Compound 9a, 3-[4-[4-(2-methoxyphenyl)-1-piperazinyl]-1-butyl]-5-trifluoromethyl-1H-indazole]",8.07
8,"Clc1ccc2c(c1)C(CCCCN1CCN(c3cccc4c3OCCO4)CC1)CN2 (centres unmarked) [Compound 3k, 3-[4-[4-(1,4-benzodioxan-5-yl)-1-piperazinyl]-1-butyl]-5-chloro-1H-2,3-dihydroindole]",8.12
9,"COc1ccccc1N1CCN(CCCCc2c[nH]c3ccccc23)CC1 [Compound 2a, 3-[4[4-(2-methoxyphenyl)-1-piperazinyl]-1-butyl]-1H-indole]",7.77
10,"COc1ccccc1N1CCN(CCCCC2CNc3cc(Cl)ccc32)CC1 (centres unmarked) [Compound 3f, 6-chloro-3-[4-[4-(2-methoxyphenyl)-1-piperazinyl]-1-butyl]-1H-2,3-dihydroindole]",8.24
11,"c1ccc2c(c1)NCC2CCCCN1CCN(c2cccc3c2OCCO3)CC1 (single isomer, unassigned; (-)) [Compound 7d, (-)-b 3-[4-[4-(1,4-benzodioxan-5-yl)-1-piperazinyl]-1-butyl]-1H-2,3-dihydroindole]",8.51
12,"c1cc2c(c(N3CCN(CCCCc4c[nH]c5ccccc45)CC3)c1)OCCO2 [Compound 2c, 3-[4-[4-(1,4-benzodioxan-5-yl)-1-piperazinyl]-1-butyl]-1H-indole]",8.24
13,"Fc1ccc2c(c1)C(CCCCN1CCN(c3cccc4c3OCC4)CC1)CN2 (centres unmarked) [Compound 3m, 3-[4-[4-(2,3-dihydro-7-benzofuranyl)-1-piperazinyl]-1-butyl]-5-fluoro-1H-2,3-dihydroindole]",8.24
14,"COc1ccccc1N1CCN(CCCCC2CN(C(C)=O)c3ccccc32)CC1 (centres unmarked) [Compound 5a, 1-Acetyl-3-[4-[4-(2-methoxyphenyl)-1-piperazinyl]-1-butyl]-1H-2,3-dihydroindole]",7.46
15,"c1cc2c(c(N3CCN(CCCCc4c[nH]c5ccccc45)CC3)c1)OCC2 [Compound 2b, 3-[4-[4-(2,3-dihydro-7-benzofuranyl)-1-piperazinyl]-1-butyl]-1H-indole]",7.85
16,"CC(C)Oc1ccccc1N1CCN(CCCCC2CNc3ccccc32)CC1 (centres unmarked) [Compound 3d, 3-[4-[4-(2-isopropyloxyphenyl)-1-piperazinyl]-1-butyl]-1H-2,3-dihydroindole]",7.77
17,"COc1ccccc1N1CCN(CCCCC2C(=O)Nc3ccccc32)CC1 (centres unmarked) [Compound 8a, 3-[4-[4-(2-methoxyphenyl)-1-piperazinyl]-1-butyl]-1H-2,3-dihydroindol-2-on]",7.29
